Our source for the Kd values is publication PMC12311952, “Mechanism of SC targeting RhoA regulation and its potential value in gastric cancer therapy” (Biochemistry and Biophysics Reports, 2025).

The target of this experiment is RhoA (Homo sapiens, UniProt P61586). The experiment in a line: SPR (Biacore T200, RhoA immobilized on CM5 chip, […] Langmuir fit). Format: binding.
Sequence of RhoA (P61586 1-190): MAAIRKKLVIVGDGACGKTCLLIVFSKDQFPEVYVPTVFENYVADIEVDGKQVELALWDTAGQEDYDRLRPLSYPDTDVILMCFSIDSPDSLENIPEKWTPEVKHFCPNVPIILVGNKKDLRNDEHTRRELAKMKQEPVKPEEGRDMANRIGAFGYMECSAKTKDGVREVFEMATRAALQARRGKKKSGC

For orientation: Kd means the free concentration of one partner at which half of the binding sites on the other are occupied at equilibrium, for simple one-to-one binding. A low value points to a tighter complex. Regarding `O=C(/C=C/CCc1ccc(O)c(O)c1)CCCCc1ccc(O)c(O)c1` [compound 5, (E)-1,9-bis(3,4-dihydroxyphenyl)non-3-en-5-one], the Kd is 1590 nM.
